Measured values as given in patent publication US20200171026A1, “PROSTACYCLIN RECEPTOR AGONISTS FOR REDUCTION OF BODY FAT” (Allergan, Inc., priority 2017, published 2020).

Tests used:
human adipocytes = assay: human adipocyte lipolysis assay (glycerol released into the medium); format: cell-based; settings: for glycerol release / lipolytic activity in human adipocytes (FIG. 2): fully differentiated human adipocytes, 1 μM
Method: Two weeks after the initiation of differentiation, differentiated cells appeared rounded with large lipid droplets apparent in the cytoplasm, and were thereby considered mature adipocytes. At this time, the differentiation medium was washed out. Two days after washing out the differentiation agents, the mature adipocytes were treated with different concentrations of PGI2 receptor agonist compounds cicaprost, beraprost, FK-788 and selexipag. Lipolytic activity was assessed by the measurement of glycerol released into the medium from triglyceride breakdown. In this experiment, lipolysis was measured using a human adipocyte lipolysis assay kit (ZenBio, Inc., Research Triangle Park, N.C., Cat #LIP-1-SPF).
The data are provided in FIG. 1 and are expressed as fold induction over a buffer control (mature adipocytes treated with vehicle buffer in the absence of any agonist). Each data point on the graph in FIG. 1 represents the mean±SEM of 2 to 8 experiments.
The in vitro human adipocytes lipolysis results for cicaprost and FK-788 from Example 1 at the 1 μM concentration were compared to lipolysis induced by those compounds in ex vivo mouse adipocytes, which are commonly used to detect lipolytic activity.

[1] = tested on: fat in the triceps region; assay: In vivo human study, topical ointment, body fat calipers in triceps region; settings: human subjects; topical ointment 0.003%, 0.03% or 0.3% daily; 6 months
Description: The following experiment describes a randomized, double-blind study in human subjects to test whether compounds according to the present disclosure, including topical FK-788, reduces fat in the body of individuals.
Multiple human subjects (both male and female), for example, with body mass indices of 30 or more but otherwise healthy, are entered into a randomized double-blind study. Either the left or the right arm is randomized to receive topical FK-788; the other arm receives vehicle only. FK-788 is supplied in a petrolatum-based ointment (the vehicle) at a final concentration of 0%, 0.003%, 0.03% or 0.3%. Ointment containers are unlabeled as to the presence or concentration of FK-788.
Each day, subjects apply a thin film of ointment to the skin over the respective triceps while wearing new, clean surgical gloves. Subjects are instructed to refrain from washing the treated area for at least 8 hours and are instructed to refrain from wearing tight clothing or occlusive dressings that will come into contact with the treated area.
Body fat calipers are used to measure fat in the triceps region bilaterally on a weekly basis. The study continues for 6 months. […] As a result, this contemplated outcome will show, in vivo, that compounds according to the present invention, including FK-788, can reduce fat.

[2] = fold induction over buffer control

SMILES	glycerol release / lipolytic activity in human adipocytes (FIG. 2) (human adipocytes; [2])	fat in treated arm compared to vehicle-treated arm [1]	relative potency among the PGI2 receptor agonists tested (human adipocytes; human mature adipocytes, cicaprost, beraprost, FK-788 and selexipag compared)	increase in glycerol production (human adipocytes; human mature adipocytes, concentration of about 0.1 μM, fold induction over buffer control)
O=C(O)COc1cccc2c1CC[C@](O)(COC(=O)N(c1ccccc1)c1ccccc1)C2 [FK-788, 2-[[(6R)-6-[di(phenyl)carbamoyloxymethyl]-6-hydroxy-7,8-dihydro-5H-naphthalen-1-yl]oxy]acetic acid]	increased glycerol release	lower fat		
CCC#CC[C@H](C)[C@H](O)C#C[C@@H]1[C@H]2C/C(=C/COCC(=O)O)C[C@H]2C[C@H]1O [cicaprost, 2-[(2E)-2-[(3aS,4S,5R,6aS)-5-hydroxy-4-[(3S,4S)-3-hydroxy-4-methylnona-1,-6-diynyl]-3,3a,4,5,6,6a-hexahydro-1H-pentalen-2-ylidene]ethoxy]acetic acid]	increased glycerol release		most potent agonist	approximately 3 fold
